Measured values from US10590153B2, “Process for producing crystalline DTPMP” (Zschimmer & Schwarz Mohsdorf GmbH & Co. KG, priority 2014, dated 2020).

Tests used:
[1] = about 55% humidity at 22° C.
Procedure: In a further test, the influence of the degree of neutralisation of the phosphonic acid DTPMP on the hygroscopicity was studied, on account of its industrial relevance, especially the sodium salts. To that end, 10 g of sample were stored in four crystallisation dishes of equal size in a desiccator under constant humidity. Via a saturated magnesium nitrate solution with precipitate (about ⅓ precipitate in ⅔ of the solution), about 55% by weight humidity is established at 22° C. The water absorption of the samples was determined gravimetrically twice daily over a period of 22 days as the difference in mass (see FIG. 15).
A crystallisate of the α crystal modification with a foreign acid content of 3.8% by weight chloride and in total 6.6% by weight H3PO4 and H3PO3 per 100% by mass DTPMP was dissolved again. Portions were neutralised with sodium hydroxide solution to pH (1% strength)=1.7 for the Na0.5-DTPMP salt, pH (1% strength)=2.1 for the Na3-DTPMP salt and pH (1% strength)=6.6 for the Na7-DTPMP salt.

[2] = Solubility of DTPMP at room temperature in dependence on the concentration of sodium ions and chloride ions; type: physicochemical; conditions: chloride ions in the range of from 1 to 4% by mass, room temperature (FIG. 13)
Excerpt: FIG. 13: Solubility of DTPMP at room temperature in dependence on the concentration of sodium ions and chloride ions in % by mass.

[3] = Bulk density of the samples used for the hygroscopicity test; type: physicochemical
[4] = Determination of the hygroscopicity (gravimetric water absorption in desiccator at constant humidity); type: physicochemical; conditions: 22±2° C., relative humidity of 55%; for Relative water absorption: determined daily over 12 days
Procedure: In order to determine the hygroscopicity, solid samples were stored in 25 ml glass beakers in a desiccator under constant humidity. […] The water absorption of the samples was determined gravimetrically once daily over a period of 12 days as the difference in mass (see FIG. 14).
Two spray-dried powders were tested as comparison with crystallisate samples of the crystallisates of the α, β and γ crystal modification.
A DTPMP synthesis product having the quality parameters from Table 4 used as the starting slurry for the crystallisation was spray dried with a Büchi-Mini Spray Dryer B-290.

SMILES | Appearance of the sample after 22 days [1] | Bulk density [3] [g/mL] | Relative water absorption [4] [% by mass/day] | other results
O=P(O)(O)CN(CCN(CP(=O)(O)O)CP(=O)(O)O)CCN(CP(=O)(O)O)CP(=O)(O)O [DTPMP acid, diethylenetriamine penta(methylenephosphonic acid)] | still recognisable | – | – | –
O=P(O)(O)CN(CCN(CP(=O)(O)O)CP(=O)(O)O)CCN(CP(=O)(O)O)CP(=O)(O)O [DTPMP, diethylenetriamine penta(methylenephosphonic acid)] | – | – | – | Solubility of DTPMP (in words) [2]: further reduction in solubility
O=P([O-])([O-])CN(CCN(CCN(CP(=O)([O-])[O-])CP(=O)([O-])O)CP(=O)([O-])O)CP(=O)([O-])O.[Na+].[Na+].[Na+].[Na+].[Na+].[Na+].[Na+] [Na7 salt] | liquefied | – | – | Appearance of the sample after half the test time ([1]; after only half the test time (of 22 days)): visibly contracting to form a block
O=P(O)(O)CN(CCN(CP(=O)(O)O)CP(=O)(O)O)CCN(CP(=O)(O)O)CP(=O)(O)O [amorphous powder from spray drying of a DTPMP acid purified ] [reference compound] | – | 0.27 | 0.29 | Hygroscopicity / water absorption capacity (in words) ([4]; listed as DTPMP quality purified by recrystallisation and spray dried): lower water absorption capacity than the unpurified crude product
O=P(O)(O)CN(CCN(CP(=O)(O)O)CP(=O)(O)O)CCN(CP(=O)(O)O)CP(=O)(O)O [amorphous powder from spray drying of an unpurified DTPMP sy] [reference compound] | – | 0.27 | 0.40 | Hygroscopicity / water absorption capacity (in words) ([4]; listed as Spray-dried powders of the unpurified DTPMP synthesis product): greatest hygroscopicity
